Each structure is given as a SMILES string. Where two headings read alike, the source gives them in different places.

The target in one experiment is human TLR7 (Homo sapiens (Human), UniProt Q9NYK1). Put plainly: TLR7 inhibition reporter assay (HEK-Blue SEAP). The experiment is classed as cell-based. Background: In a reporter assay the amount or activity of a reporter protein is the signal.
A further experiment concerns the target human TLR8 (Homo sapiens (Human), UniProt Q9NR97). Put plainly: TLR8 inhibition reporter assay (HEK-Blue SEAP).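 Also: SEAP driven by IFN-β minimal promoter carrying NF-κB and AP-1 sites, compounds dosed 0.05 nM to 50 µM for 22 h, inhibition scaled between agonist-plus-DMSO and reference-inhibitor wells.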 To be noted: read-out: TLR8 IC50.
The target in the next experiment is human TLR9 (Homo sapiens (Human), UniProt Q9NR96). Put plainly: TLR9 inhibition reporter assay (HEK-Blue SEAP).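 Also: SEAP driven by an IFN-β minimal promoter with NF-κB and AP-1 sites, read after 22 h, compounds dosed 0.05 nM–50 µM, inhibition scaled between agonist plus DMSO and reference-inhibitor wells.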 To be noted: read-out: TLR9 IC50.
Where [1] appears, read: HEK-Blue human TLR7 cells, gardiquimod 7.5 μM.
Setting [2] is: HEK-Blue human TLR8 cells, R848 15.9 μM.
Setting [3] is: HEK-Blue human TLR9 cells, ODN2006 5 nM.
[4] abbreviates: HEK-Blue cells overexpressing human TLR7, SEAP reporter, gardiquimod 7.5 μM.
Where [5] appears, read: HEK-Blue cells overexpressing human TLR8, SEAP reporter, R848 15.9 μM.
Setting [6] is: HEK-Blue cells overexpressing human TLR9, SEAP reporter, ODN2006 5 nM.
[7] abbreviates: HEK-Blue cells overexpressing human TLR7, gardiquimod 7.5 μM stimulation, SEAP reporter.
[8] abbreviates: HEK-Blue cells overexpressing human TLR8, R848 15.9 μM stimulation, SEAP reporter.
Where [9] appears, read: HEK-Blue cells overexpressing human TLR9, ODN2006 5 nM stimulation, SEAP reporter.

Sequence of human TLR7 (Q9NYK1 27-1049): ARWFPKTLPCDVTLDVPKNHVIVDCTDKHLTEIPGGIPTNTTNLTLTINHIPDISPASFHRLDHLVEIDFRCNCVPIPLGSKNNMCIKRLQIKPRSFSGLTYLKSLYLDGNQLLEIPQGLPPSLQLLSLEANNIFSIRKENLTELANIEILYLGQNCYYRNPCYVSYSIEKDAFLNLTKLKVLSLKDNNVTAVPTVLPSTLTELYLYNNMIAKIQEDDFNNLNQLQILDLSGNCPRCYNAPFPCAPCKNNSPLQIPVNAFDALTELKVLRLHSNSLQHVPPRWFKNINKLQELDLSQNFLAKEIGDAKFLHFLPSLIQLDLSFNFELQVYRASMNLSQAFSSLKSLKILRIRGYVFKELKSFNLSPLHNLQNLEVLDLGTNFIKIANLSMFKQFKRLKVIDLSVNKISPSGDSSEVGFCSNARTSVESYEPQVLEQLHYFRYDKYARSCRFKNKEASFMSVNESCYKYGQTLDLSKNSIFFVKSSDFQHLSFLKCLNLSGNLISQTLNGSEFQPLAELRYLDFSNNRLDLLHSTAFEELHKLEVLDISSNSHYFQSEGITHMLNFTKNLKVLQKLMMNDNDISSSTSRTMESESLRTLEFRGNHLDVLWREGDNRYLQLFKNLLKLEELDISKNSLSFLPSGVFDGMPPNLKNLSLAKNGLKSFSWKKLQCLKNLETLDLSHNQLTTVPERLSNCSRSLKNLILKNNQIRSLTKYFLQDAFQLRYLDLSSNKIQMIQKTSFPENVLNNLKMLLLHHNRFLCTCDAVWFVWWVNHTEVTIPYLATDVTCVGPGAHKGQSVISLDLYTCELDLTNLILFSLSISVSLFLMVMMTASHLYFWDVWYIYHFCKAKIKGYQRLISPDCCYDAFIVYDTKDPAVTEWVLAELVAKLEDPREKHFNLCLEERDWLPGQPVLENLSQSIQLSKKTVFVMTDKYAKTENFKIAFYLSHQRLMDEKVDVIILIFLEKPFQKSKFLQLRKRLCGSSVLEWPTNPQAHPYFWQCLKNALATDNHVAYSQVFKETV
Sequence of human TLR9 (Q9NR96 26-1032): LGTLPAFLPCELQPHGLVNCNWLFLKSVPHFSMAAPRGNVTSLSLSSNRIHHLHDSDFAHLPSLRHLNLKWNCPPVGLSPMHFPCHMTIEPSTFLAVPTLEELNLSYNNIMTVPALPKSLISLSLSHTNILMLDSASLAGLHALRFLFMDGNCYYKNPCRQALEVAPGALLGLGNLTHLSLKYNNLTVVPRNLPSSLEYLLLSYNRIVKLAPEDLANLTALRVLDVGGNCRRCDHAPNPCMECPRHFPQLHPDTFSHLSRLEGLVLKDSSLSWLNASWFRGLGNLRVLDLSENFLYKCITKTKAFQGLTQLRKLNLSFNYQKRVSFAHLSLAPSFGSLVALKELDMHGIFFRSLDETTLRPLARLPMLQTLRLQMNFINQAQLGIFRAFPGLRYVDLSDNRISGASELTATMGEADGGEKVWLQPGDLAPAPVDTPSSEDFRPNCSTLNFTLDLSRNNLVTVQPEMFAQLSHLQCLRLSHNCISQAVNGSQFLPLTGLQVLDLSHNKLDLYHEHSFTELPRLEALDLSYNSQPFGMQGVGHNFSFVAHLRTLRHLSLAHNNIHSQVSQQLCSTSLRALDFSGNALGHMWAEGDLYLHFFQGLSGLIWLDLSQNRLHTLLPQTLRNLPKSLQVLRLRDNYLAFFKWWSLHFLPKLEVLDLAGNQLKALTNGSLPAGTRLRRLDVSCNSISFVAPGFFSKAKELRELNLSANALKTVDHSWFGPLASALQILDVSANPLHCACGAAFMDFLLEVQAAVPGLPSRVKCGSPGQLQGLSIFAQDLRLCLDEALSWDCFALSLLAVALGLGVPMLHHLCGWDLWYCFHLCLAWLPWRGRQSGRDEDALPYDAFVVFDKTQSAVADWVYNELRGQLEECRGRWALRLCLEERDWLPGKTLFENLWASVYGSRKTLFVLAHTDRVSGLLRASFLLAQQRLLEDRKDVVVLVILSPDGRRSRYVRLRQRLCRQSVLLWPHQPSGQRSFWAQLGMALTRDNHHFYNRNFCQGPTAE
Sequence of human TLR8 (Q9NR97 27-1041): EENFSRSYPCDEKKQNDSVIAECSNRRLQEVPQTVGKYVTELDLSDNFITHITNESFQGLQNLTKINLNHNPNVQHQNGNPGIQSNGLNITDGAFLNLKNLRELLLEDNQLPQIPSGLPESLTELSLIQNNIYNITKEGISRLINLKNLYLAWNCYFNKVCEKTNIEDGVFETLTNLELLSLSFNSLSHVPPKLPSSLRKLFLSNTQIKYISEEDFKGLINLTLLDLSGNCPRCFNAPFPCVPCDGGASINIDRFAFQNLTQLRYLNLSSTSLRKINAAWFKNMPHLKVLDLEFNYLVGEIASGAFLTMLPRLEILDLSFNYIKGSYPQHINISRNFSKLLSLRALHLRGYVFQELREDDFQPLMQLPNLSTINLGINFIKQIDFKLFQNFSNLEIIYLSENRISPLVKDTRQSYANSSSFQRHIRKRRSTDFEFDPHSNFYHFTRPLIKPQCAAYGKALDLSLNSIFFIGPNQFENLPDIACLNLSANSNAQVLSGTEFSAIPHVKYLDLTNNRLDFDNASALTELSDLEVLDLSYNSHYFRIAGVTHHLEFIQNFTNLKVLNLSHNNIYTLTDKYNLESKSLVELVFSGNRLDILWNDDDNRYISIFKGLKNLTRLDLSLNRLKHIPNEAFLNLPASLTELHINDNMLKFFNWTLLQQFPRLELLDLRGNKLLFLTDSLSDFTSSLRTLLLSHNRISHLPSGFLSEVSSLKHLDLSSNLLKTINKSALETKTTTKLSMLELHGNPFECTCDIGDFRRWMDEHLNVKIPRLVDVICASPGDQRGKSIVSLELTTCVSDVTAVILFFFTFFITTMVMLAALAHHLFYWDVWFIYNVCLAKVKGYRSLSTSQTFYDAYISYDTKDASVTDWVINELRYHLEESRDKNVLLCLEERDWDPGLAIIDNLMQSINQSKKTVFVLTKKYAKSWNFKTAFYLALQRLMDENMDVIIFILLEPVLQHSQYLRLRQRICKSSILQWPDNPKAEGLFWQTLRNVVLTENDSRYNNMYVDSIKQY
Description for human TLR8: HEK-Blue™-cells (Invivogen) overexpressing human TLR7, TLR8 or TLR9 receptors were used for screening inhibitors of these receptors using an inducible SEAP (secreted embryonic alkaline phosphatase) reporter gene under the control of the IFN-β minimal promoter fused to five NF-κB and AP-1-binding sites. Briefly, cells are seeded into Greiner 384 well plates (15000 cells per well for TLR7, 20,000 for TLR8 and 25,000 for TLR9) and then treated with test compounds in DMSO to yield a final dose response concentration range of 0.05 nM-50 μM. After a 30 minute compound pre-treatment at room temperature, the cells are then stimulated with a TLR7 ligand (gardiquimod at a final concentration of 7.5 μM), TLR8 ligand (R848 at a final concentration of 15.9 μM) or TLR9 ligand (ODN2006 at a final concentration of 5 nM) to activate NF-κB and AP-1 which induce the production of SEAP. After a 22 hour incubation at 37° C., 5% CO2, SEAP levels are determined with the addition of HEK-Blue™ Detection reagent (Invivogen), a cell culture medium that allows for detection of SEAP, according to manufacturer's specifications.

A word on the IC50: it is the concentration at which inhibition is half-maximal. Consider `Cc1c(-c2[nH]c3ccc(C4CCC(N5CC(O)C5)CC4)nc3c2C(C)C)cn2ncnc2c1C` (stereo not drawn) [Example 1046], for which the IC50 worked out at 0.64 nM at human TLR7 (setting [1]), 2.4 nM at human TLR8 (setting [2]) and 2500 nM at human TLR9 (setting [3]).

On to `COc1cc(-c2[nH]c3ccc(C4CC(NCCS(C)(=O)=O)C4)nc3c2C(C)C)cn2ncnc12` (stereo not drawn) [Example 634], for which the figures for the IC50 on human TLR7 (setting [4]), on human TLR8 (setting [5]) and at human TLR9 (setting [6]) were 2 nM, 3 nM and 2370 nM, respectively.

In the case of `CCCCN(CC(=O)N1CCN(c2ccc3[nH]c(-c4cn5ncnc5c(C)c4C)c(C(C)C)c3n2)CC1)C(C)C` [Example 882], the concentration for half-maximal inhibition (IC50) came to 3.3 nM on human TLR7 (setting [1]), 11 nM on human TLR8 (setting [2]) and 7760 nM at human TLR9 (setting [3]).

`COc1cc(-c2[nH]c3ccc(C4CCC(N(C)C5CC5)CC4)nc3c2C(C)C)cn2ncnc12` (stereo not drawn) [Example 172]: the values for the IC50 against human TLR7 (setting [7]), at human TLR8 (setting [8]) and at human TLR9 (setting [9]) were 1.9 nM, 13 nM and 1790 nM, respectively.

Turning to `COc1cc(-c2[nH]c3cc(F)c(C4CCN(CCS(C)(=O)=O)CC4)nc3c2C(C)C)cn2ncnc12` [Example 573], the IC50 was 0.99 nM against human TLR7 (setting [4]), 9.1 nM on human TLR8 (setting [5]) and 3230 nM at human TLR9 (setting [6]).

Consider `CCCN1CCC(c2ccc3[nH]c(-c4cn(C)c(=O)c(Cl)c4C)c(C(C)C)c3n2)CC1` [Example 568], for which the IC50 on human TLR7 (setting [4]) worked out at 6 nM; at human TLR8 (setting [5]), 3.8 nM; at human TLR9 (setting [6]), 2080 nM.

Consider `Cc1c(-c2[nH]c3ccc(N4CCN(C(=O)CN(C)C5COC5)CC4)nc3c2C(C)C)cn2ncnc2c1C` [Example 967], for which the IC50 was found to be 7.9 nM against human TLR7 (setting [1]), 1.2 nM on human TLR8 (setting [2]) and 38700 nM on human TLR9 (setting [3]).

In the case of `CCCN(C)CC(=O)N1C[C@H](C)N(c2ccc3[nH]c(-c4cn5ncnc5c(C)c4C)c(C(C)C)c3n2)C[C@H]1C` [Example 894], the IC50 on human TLR7 (setting [1]) was 0.37 nM; on human TLR8 (setting [2]), 0.89 nM; on human TLR9 (setting [3]), 10800 nM.

On to `Cc1c(-c2[nH]c3ccc(C4CCC(N5CC(F)(F)C5)CC4)nc3c2C(C)C)cn2ncnc2c1C` (stereo not drawn) [Example 374], for which the 50% inhibitory concentration (IC50) came to 36 nM against human TLR7 (setting [7]), 187 nM on human TLR8 (setting [8]) and 21600 nM on human TLR9 (setting [9]).

For `Cc1c(-c2[nH]c3ccc(C4CCC(N5CCC(F)C5)CC4)nc3c2C(C)C)cn2ncnc2c1C` (stereo not drawn) [Example 1058], the half-inhibitory concentration (IC50) at human TLR7 (setting [1]) stood at 1.9 nM; on human TLR8 (setting [2]), 3.5 nM; on human TLR9 (setting [3]), 5280 nM.

For `Cc1c(-c2[nH]c3ccc(C4CCC(N(CCO)CC5(S(C)(=O)=O)CC5)CC4)nc3c2C(C)C)cn2ncnc2c1C` (stereo not drawn) [Example 482], the IC50 against human TLR7 (setting [4]) was 96 nM; at human TLR8 (setting [5]), 238 nM; on human TLR9 (setting [6]) it was greater than 50000 nM.

As to `Cc1c(-c2[nH]c3ccc(N4CCN(C(=O)CCN(C)C)C[C@H]4C)nc3c2C(C)C)cn2ncnc2c1C` [Example 823], the IC50 against human TLR7 (setting [1]) was 0.49 nM; on human TLR8 (setting [2]), 1.2 nM; at human TLR9 (setting [3]) it was 6930 nM.

As for `Cc1c(-c2[nH]c3ccc(NCCNC(=O)CN(C)C)nc3c2C(C)C)cn2ncnc2c1C` [Example 1002], the IC50 against human TLR7 (setting [1]) was found to be 10 nM; on human TLR8 (setting [2]) it was 4.6 nM; on human TLR9 (setting [3]), 1100 nM.

As to `COc1cc(-c2[nH]c3ccc(C4CCC(N(C)Cc5cnc(C)cn5)CC4)nc3c2C(C)C)cn2ncnc12` (stereo not drawn) [Example 203], the results for the IC50 on human TLR7 (setting [7]), at human TLR8 (setting [8]) and on human TLR9 (setting [9]) were 2 nM, 7.9 nM and 537 nM, respectively.

As for `Cc1c(-c2[nH]c3ccc(N4CCC(N(C)CC5(C)COC5)CC4)nc3c2C(C)C)cn2ncnc2c1C` [Example 996], the IC50 at human TLR7 (setting [1]) was found to be 1.3 nM; on human TLR8 (setting [2]), 0.4 nM; at human TLR9 (setting [3]), 11000 nM.

For `Cc1c(-c2[nH]c3ccc(C4CCC(N5CCC[C@@H]5CO)CC4)nc3c2C(C)C)cn2ncnc2c1C` (stereo partly drawn) [Example 377], the IC50 is 2.1 nM at human TLR7 (setting [7]), 2.2 nM on human TLR8 (setting [8]) and 767 nM on human TLR9 (setting [9]).

For `Cc1c(-c2[nH]c3ccc(N4C[C@@H](C)N(C(=O)CCN(C)C)[C@H](C)C4)nc3c2C(C)C)cn2ncnc2c1C` [Example 886], the IC50 at human TLR7 (setting [1]) worked out at 2.8 nM; on human TLR8 (setting [2]), 1.7 nM; at human TLR9 (setting [3]), 2570 nM.

On to `CC(C)c1c(-c2cn(C)c3ncccc23)[nH]c2ccc(CCC3CN(C4COC4)C3)nc12` [Example 694], for which the IC50 stood at 2310 nM at human TLR7 (setting [4]), 2850 nM on human TLR8 (setting [5]) and 14600 nM on human TLR9 (setting [6]).

Take `Cc1c(-c2[nH]c3ccc(N4CCC(NCC5(S(C)(=O)=O)CC5)C4)nc3c2C(C)C)cn2ncnc2c1C` (stereo not drawn) [Example 165]: the figures for the IC50 against human TLR7 (setting [7]), on human TLR8 (setting [8]) and at human TLR9 (setting [9]) were 11 nM, 0.68 nM and 22700 nM, respectively.

Take `Cc1c(-c2[nH]c3ccc(N4CCN(C(=O)CN(C)C(C)C)CC4)nc3c2C(C)C)cn2ncnc2c1C` [Example 872]: the results for the IC50 against human TLR7 (setting [1]), on human TLR8 (setting [2]) and at human TLR9 (setting [3]) were 0.97 nM, 3.8 nM and 9540 nM, respectively.

Consider `Cc1cc2[nH]c(-c3cc(C)c4ncnn4c3)c(C(C)C)c2nc1C1CCNCC1` [Example 525], for which the IC50 on human TLR7 (setting [4]) turned out to be 0.18 nM; on human TLR8 (setting [5]), 48 nM; on human TLR9 (setting [6]), 771 nM.

With `Cc1c(-c2[nH]c3ccc(N4CC(NCC(=O)N(C)C)C4)nc3c2C(C)C)cn2ncnc2c1C` [Example 22], the results for the IC50 at human TLR7 (setting [7]), on human TLR8 (setting [8]) and on human TLR9 (setting [9]) were 56 nM, 12 nM and 21100 nM, respectively.

Consider `Cc1c(-c2[nH]c3ccc(N4CCN(C(=O)CCN(C)C)CC4)nc3c2C(C)C)cn2ncnc2c1C` [Example 98], for which the half-inhibitory concentration (IC50) on human TLR7 (setting [7]) was found to be 0.74 nM; at human TLR8 (setting [8]), 0.72 nM; on human TLR9 (setting [9]), 5230 nM.

For `Cc1c(-c2[nH]c3ccc(N4CCN(C(=O)CN(CC(C)C)CC(C)C)CC4)nc3c2C(C)C)cn2ncnc2c1C` [Example 881], the IC50 was 25 nM against human TLR7 (setting [1]), 68 nM on human TLR8 (setting [2]) and 43500 nM at human TLR9 (setting [3]).

Consider `Cc1c(-c2[nH]c3ccc(N4CCC(N)CC4)nc3c2C(C)C)cn2ncnc2c1C` [Example 50], for which the IC50 against human TLR7 (setting [7]) amounted to 0.49 nM; at human TLR8 (setting [8]), 0.39 nM; at human TLR9 (setting [9]) it was 2840 nM.

As for `Cc1c(-c2[nH]c3ccc(N4C[C@@H](C)N(C(=O)CCN5CC6(CCOC6)C5)C[C@@H]4C)nc3c2C(C)C)cn2ncnc2c1C` [Example 960], the IC50 at human TLR7 (setting [1]) came to 0.77 nM; at human TLR8 (setting [2]), 0.32 nM; on human TLR9 (setting [3]) it was 3170 nM.

As for `CC(C)c1c(-c2cn(C)c3ncccc23)[nH]c2ccc(C3CCC(NCC(=O)N(C)C)CC3)nc12` (stereo not drawn) [Example 183], the IC50 stood at 5.6 nM on human TLR7 (setting [7]), 15 nM on human TLR8 (setting [8]) and 1030 nM at human TLR9 (setting [9]).

For `CCN(CC(=O)N1C[C@H](C)N(c2ccc3[nH]c(-c4cn5ncnc5c(C)c4C)c(C(C)C)c3n2)C[C@H]1C)C(C)C` [Example 912], the figures for the IC50 against human TLR7 (setting [1]), on human TLR8 (setting [2]) and on human TLR9 (setting [3]) were 0.98 nM, 2.2 nM and 9330 nM, respectively.

Take `COc1cc(-c2[nH]c3ccc(N4CC5(CNC5)C4)nc3c2C(C)C)cn2ncnc12` [Example 1016]: the IC50 at human TLR7 (setting [1]) amounted to 2.9 nM; on human TLR8 (setting [2]) it was 38 nM; on human TLR9 (setting [3]), 641 nM.

Regarding `Cc1c(-c2[nH]c3ccc(N4[C@@H](C)CN(C(=O)CN(C)C)C[C@@H]4C)nc3c2C(C)C)cn2ncnc2c1C` [Example 752], the figures for the IC50 on human TLR7 (setting [4]), on human TLR8 (setting [5]) and on human TLR9 (setting [6]) were 0.38 nM, 0.53 nM and 10300 nM, respectively.

Consider `Cc1c(-c2[nH]c3ccc(N4CCN(C(=O)CN5CCC5)C[C@@H]4C)nc3c2C(C)C)cn2ncnc2c1C` [Example 824], for which the figures for the IC50 against human TLR7 (setting [1]), at human TLR8 (setting [2]) and on human TLR9 (setting [3]) were 1.6 nM, 2.1 nM and 5790 nM, respectively.

(Values after US10544143B2, “4-azaindole compounds” (BRISTOL-MYERS SQUIBB COMPANY, priority 2017, dated 2020).)
